Experimental data from the NIST ThermoML archive (doi:10.1021/je060271a).
Numbers after ± are expanded uncertainties.

Conditions: 323.15 K, Liquid, Vibrating tube method

CCCCCCC(=O)OCC(COC(=O)CCCCCC)(COC(=O)CCCCCC)COC(=O)CCCCCC [pentaerythritol tetraheptanoate]
Conditions | mass density [kg/m3]
21056 kPa | 969.3 ± 1.2
21077 kPa | 969.3 ± 1.2
21094 kPa | 969.4 ± 1.2
21132 kPa | 969.3 ± 1.2
21278 kPa | 969.4 ± 1.2
21299 kPa | 969.5 ± 1.2
21316 kPa | 969.5 ± 1.2
21334 kPa | 969.5 ± 1.2
21352 kPa | 969.4 ± 1.2
21372 kPa | 969.6 ± 1.2
21390 kPa | 969.6 ± 1.2
21408 kPa | 969.8 ± 1.2
21430 kPa | 969.6 ± 1.2
21448 kPa | 969.6 ± 1.2
21466 kPa | 969.5 ± 1.2
21483 kPa | 969.6 ± 1.2
21504 kPa | 969.5 ± 1.2
21522 kPa | 969.6 ± 1.2
21540 kPa | 969.7 ± 1.2
21562 kPa | 969.6 ± 1.2
21580 kPa | 969.6 ± 1.2
21601 kPa | 969.7 ± 1.2
21619 kPa | 969.8 ± 1.2
21637 kPa | 969.7 ± 1.2
21659 kPa | 969.7 ± 1.2
21677 kPa | 969.8 ± 1.2
21695 kPa | 969.8 ± 1.2
21716 kPa | 969.7 ± 1.2
21734 kPa | 969.8 ± 1.2
21753 kPa | 969.7 ± 1.2
21775 kPa | 969.9 ± 1.2
21793 kPa | 969.8 ± 1.2
21830 kPa | 969.9 ± 1.2
21852 kPa | 969.8 ± 1.2
21871 kPa | 969.8 ± 1.2
21930 kPa | 970 ± 1.2
21950 kPa | 969.9 ± 1.2
21968 kPa | 969.8 ± 1.2
21990 kPa | 969.9 ± 1.2
22070 kPa | 970 ± 1.2
22089 kPa | 969.9 ± 1.2
22112 kPa | 969.9 ± 1.2
22131 kPa | 970 ± 1.2
22150 kPa | 969.9 ± 1.2
22173 kPa | 970 ± 1.2
22193 kPa | 970 ± 1.2
22213 kPa | 970 ± 1.2
22232 kPa | 970 ± 1.2
22275 kPa | 970.2 ± 1.2
22313 kPa | 970.1 ± 1.2
22336 kPa | 970.1 ± 1.2
22356 kPa | 970.1 ± 1.2
22380 kPa | 970.1 ± 1.2
22399 kPa | 970.2 ± 1.2
22419 kPa | 970.2 ± 1.2
22442 kPa | 970.1 ± 1.2
22463 kPa | 970.2 ± 1.2
22483 kPa | 970.2 ± 1.2
22502 kPa | 970.2 ± 1.2
22522 kPa | 970.2 ± 1.2
22546 kPa | 970.1 ± 1.2
22566 kPa | 970.2 ± 1.2
22585 kPa | 970.4 ± 1.2
22609 kPa | 970.3 ± 1.2
22629 kPa | 970.3 ± 1.2
22653 kPa | 970.3 ± 1.2
22717 kPa | 970.3 ± 1.2
22758 kPa | 970.4 ± 1.2
22779 kPa | 970.4 ± 1.2
22804 kPa | 970.4 ± 1.2
22824 kPa | 970.4 ± 1.2
22848 kPa | 970.5 ± 1.2
22869 kPa | 970.4 ± 1.2
22889 kPa | 970.4 ± 1.2
22913 kPa | 970.4 ± 1.2
23043 kPa | 970.5 ± 1.2
23090 kPa | 970.5 ± 1.2
23337 kPa | 970.7 ± 1.2
23406 kPa | 970.7 ± 1.2
23640 kPa | 970.9 ± 1.2
23662 kPa | 970.8 ± 1.2
23684 kPa | 970.9 ± 1.2
23706 kPa | 970.9 ± 1.2
23734 kPa | 970.9 ± 1.2
23970 kPa | 971.1 ± 1.2
23993 kPa | 971.2 ± 1.2
24020 kPa | 971.1 ± 1.2
24043 kPa | 971 ± 1.2
24070 kPa | 971.1 ± 1.2
24093 kPa | 971.2 ± 1.2
24116 kPa | 971.2 ± 1.2
24143 kPa | 971.2 ± 1.2
24166 kPa | 971.1 ± 1.2
24190 kPa | 971.2 ± 1.2
24215 kPa | 971.1 ± 1.2
24242 kPa | 971.3 ± 1.2
24265 kPa | 971.3 ± 1.2
24289 kPa | 971.3 ± 1.2
24317 kPa | 971.3 ± 1.2
24340 kPa | 971.4 ± 1.2
24364 kPa | 971.3 ± 1.2
24387 kPa | 971.3 ± 1.2
24415 kPa | 971.3 ± 1.2
24466 kPa | 971.4 ± 1.2
24515 kPa | 971.5 ± 1.2
24540 kPa | 971.4 ± 1.2
24564 kPa | 971.4 ± 1.2
24616 kPa | 971.5 ± 1.2
24669 kPa | 971.6 ± 1.2
24770 kPa | 971.5 ± 1.2
25086 kPa | 971.7 ± 1.2
25112 kPa | 971.8 ± 1.2
25142 kPa | 971.7 ± 1.2
25168 kPa | 971.8 ± 1.2
25198 kPa | 971.9 ± 1.2
25224 kPa | 971.9 ± 1.2
25249 kPa | 971.7 ± 1.2
25275 kPa | 971.9 ± 1.2
25306 kPa | 971.9 ± 1.2
25330 kPa | 971.9 ± 1.2
25356 kPa | 971.9 ± 1.2
25439 kPa | 971.9 ± 1.2
25465 kPa | 972 ± 1.2
25496 kPa | 972 ± 1.2
25522 kPa | 972.1 ± 1.2
25549 kPa | 972 ± 1.2
25575 kPa | 972 ± 1.2
25607 kPa | 972.1 ± 1.2
25663 kPa | 972.2 ± 1.2
25691 kPa | 972.2 ± 1.2
25743 kPa | 972.1 ± 1.2
25775 kPa | 972.2 ± 1.2
25801 kPa | 972.2 ± 1.2
26029 kPa | 972.3 ± 1.2
26061 kPa | 972.3 ± 1.2
26121 kPa | 972.4 ± 1.2
26148 kPa | 972.5 ± 1.2
26175 kPa | 972.3 ± 1.2
26208 kPa | 972.5 ± 1.2
26235 kPa | 972.4 ± 1.2
26263 kPa | 972.6 ± 1.2
26296 kPa | 972.3 ± 1.2
26325 kPa | 972.4 ± 1.2
26352 kPa | 972.5 ± 1.2
26386 kPa | 972.5 ± 1.2
26413 kPa | 972.5 ± 1.2
26441 kPa | 972.4 ± 1.2
26475 kPa | 972.6 ± 1.2
26503 kPa | 972.6 ± 1.2
26531 kPa | 972.6 ± 1.2
26559 kPa | 972.6 ± 1.2
26594 kPa | 972.6 ± 1.2
26622 kPa | 972.6 ± 1.2
26658 kPa | 972.7 ± 1.2
26682 kPa | 972.6 ± 1.2
26717 kPa | 972.7 ± 1.2
26745 kPa | 972.7 ± 1.2
26901 kPa | 972.8 ± 1.2
26930 kPa | 972.9 ± 1.2
26959 kPa | 972.9 ± 1.2
26995 kPa | 972.9 ± 1.2
27304 kPa | 973.1 ± 1.2
27340 kPa | 973.1 ± 1.2
27371 kPa | 973 ± 1.2
27401 kPa | 973.1 ± 1.2
27437 kPa | 973.1 ± 1.2
27468 kPa | 973.1 ± 1.2
27498 kPa | 973 ± 1.2
27534 kPa | 973.2 ± 1.2
27632 kPa | 973.3 ± 1.2
27663 kPa | 973.3 ± 1.2
27694 kPa | 973.3 ± 1.2
27794 kPa | 973.3 ± 1.2
27926 kPa | 973.5 ± 1.2
27963 kPa | 973.5 ± 1.2
27996 kPa | 973.5 ± 1.2
28065 kPa | 973.4 ± 1.2
28096 kPa | 973.6 ± 1.2
28128 kPa | 973.5 ± 1.2
28160 kPa | 973.5 ± 1.2
28199 kPa | 973.6 ± 1.2
28231 kPa | 973.6 ± 1.2
28270 kPa | 973.6 ± 1.2
28302 kPa | 973.6 ± 1.2
28334 kPa | 973.7 ± 1.2
28471 kPa | 973.7 ± 1.2
28511 kPa | 973.9 ± 1.2
28544 kPa | 973.6 ± 1.2
28577 kPa | 973.8 ± 1.2
28617 kPa | 973.8 ± 1.2
28650 kPa | 973.8 ± 1.2
28689 kPa | 973.9 ± 1.2
28723 kPa | 973.8 ± 1.2
28864 kPa | 973.9 ± 1.2
29014 kPa | 974 ± 1.2
29565 kPa | 974.4 ± 1.2
29607 kPa | 974.4 ± 1.2
29642 kPa | 974.4 ± 1.2
29686 kPa | 974.4 ± 1.2
29724 kPa | 974.5 ± 1.2
29761 kPa | 974.5 ± 1.2
29798 kPa | 974.5 ± 1.2
29834 kPa | 974.6 ± 1.2
29878 kPa | 974.6 ± 1.2
29915 kPa | 974.6 ± 1.2
29959 kPa | 974.6 ± 1.2
29995 kPa | 974.7 ± 1.2
30032 kPa | 974.6 ± 1.2
30076 kPa | 974.8 ± 1.2
30114 kPa | 974.7 ± 1.2
30151 kPa | 974.7 ± 1.2
30237 kPa | 974.8 ± 1.2
30274 kPa | 974.7 ± 1.2
30312 kPa | 974.8 ± 1.2
30358 kPa | 974.7 ± 1.2
30396 kPa | 974.8 ± 1.2
30434 kPa | 974.9 ± 1.2
32025 kPa | 975.7 ± 1.2
32076 kPa | 975.7 ± 1.2
32119 kPa | 975.8 ± 1.2
32170 kPa | 975.9 ± 1.2
32213 kPa | 975.8 ± 1.2
32256 kPa | 975.9 ± 1.2
32308 kPa | 976 ± 1.2
